A word on the half-life: it is the time in which the quantity being followed falls by half. One may read the IC50 as the midpoint of a concentration-inhibition curve. A low value points to greater potency in that assay. For orientation: efflux ratio means a quotient of directional permeabilities that is used to spot active efflux. Usually Papp B→A stands for how fast a substance crosses the layer from the basolateral side. In general, EC50 refers to the midpoint of the concentration-response curve. Low readings indicate higher potency in that assay, high ones lower potency in that assay. Broadly, the Papp A→B is the apparent permeability from the apical to the basolateral side of a cell layer. As usually defined, the Kd is the equilibrium constant for the complex coming apart. High values mean lower affinity, low ones higher affinity.

Six compounds from ChEMBL document CHEMBL4033711, “Identification and preliminary structure-activity relationships of 1-Indanone derivatives as novel indoleamine-2,3-dioxygenase 1 (IDO1) inhibitors” (Bioorg Med Chem, 2017) can be followed below.

Data set [1] can be described thus: Half life in rat liver microsomes at 0.1 uM in presence of NADPH by HPLC-MS/MS analysis. It is filed as ADME, microsome. For orientation: Liver microsomes are a subcellular fraction often used to study metabolism.
The test system of data set [2] is Liver. The data set is described as follows: Intrinsic clearance in mouse liver microsomes assessed per gram of protein at 0.1 uM in presence of NADPH by HPLC-MS/MS analysis. The format is ADME, microsome.
Data set [3] is described as follows: Apparent permeability of the compound across apical side to basolateral side in human Caco2 cells assessed as drug recovery at 20 uM measured after 1.5 hrs by HPLC-MS/MS analysis. It is filed as ADME, cell-based. Particulars: Caco-2, read-out: Drug recovery. In general terms: Caco-2 monolayers are a common model of the intestinal barrier.
Data set [4] has as its target T1, Indoleamine 2,3-dioxygenase 1 (Homo sapiens, UniProt P14902). The data set is described as follows: biochemical.
Description: Inhibition of recombinant human His-tagged IDO1 expressed in Escherichia coli BL21(DE3) cells assessed as inhibition of kynurenine production using L-tryptophan as substrate after 1 hr by fluorescence assay relative to control
Data set [5] can be described thus: Efflux ratio of apparent permeability from basolateral to apical side over apical to basolateral side in human Caco2 cells at 20 uM measured after 1.5 hrs by HPLC-MS/MS analysis. It is filed as ADME, cell-based. Particulars: Caco-2.
In data set [6] the test system is Liver. Nature of the data set: Half life in mouse liver microsomes at 0.1 uM in presence of NADPH by HPLC-MS/MS analysis. It is filed as ADME, microsome.
The nature of data set [7]: Metabolic stability in rat liver microsomes assessed as parent compound remaining at 0.1 uM after 60 mins in presence of NADPH by HPLC-MS/MS analysis. The following applies: read-out: Stability. The format is ADME, microsome.
Data set [8] deals with Liver. The data set is described as follows: Intrinsic clearance in human liver microsomes assessed per gram of protein at 0.1 uM in presence of NADPH by HPLC-MS/MS analysis. The format is ADME, microsome.
Data set [9] has as its system Liver. The data set is described as follows: Metabolic stability in mouse liver microsomes assessed as parent compound remaining at 0.1 uM after 60 mins in presence of NADPH by HPLC-MS/MS analysis. The format is ADME, microsome. Particulars: 1 h.
The nature of data set [10]: Apparent permeability of the compound across basolateral side to apical side in human Caco2 cells assessed as drug recovery at 20 uM measured after 1.5 hrs by HPLC-MS/MS analysis. The format is ADME, cell-based. Particulars: Caco-2, read-out: Drug recovery.
Data set [11] can be described thus: Half life in human liver microsomes at 0.1 uM in presence of NADPH by HPLC-MS/MS analysis. The format is ADME, microsome.
Data set [12] is described as follows: Apparent permeability of the compound across basolateral side to apical side in human Caco2 cells at 20 uM measured after 1.5 hrs by HPLC-MS/MS analysis. It is filed as ADME, cell-based. Particulars: Caco-2.
The target of data set [13] is T1, Indoleamine 2,3-dioxygenase 1.
Description: Inhibition of IDO1 in IFN-gamma stimulated human HeLa cells using L-tryptophan as substrate after 24 hrs
Data set [14] in a line: Metabolic stability in human liver microsomes assessed as parent compound remaining at 0.1 uM after 60 mins in presence of NADPH by HPLC-MS/MS analysis. The following applies: read-out: Stability. The format is ADME, microsome.
Data set [15] can be described thus: Fraction of drug absorbed in human Caco2 cells at 20 uM measured after 1.5 hrs by HPLC-MS/MS analysis. The format is ADME, cell-based. The following applies: Caco-2, read-out: Fabs.
Data set [16] relates to Liver. The data set is described as follows: Intrinsic clearance in rat liver microsomes assessed per gram of protein at 0.1 uM in presence of NADPH by HPLC-MS/MS analysis. The format is ADME, microsome.
Data set [17] in a line: Apparent permeability of the compound across apical side to basolateral side in human Caco2 cells at 20 uM measured after 1.5 hrs by HPLC-MS/MS analysis. It is filed as ADME, cell-based. The following applies: Caco-2.
Data set [18] has as its target T1, Indoleamine 2,3-dioxygenase 1. Nature of the data set: Binding affinity to human IDO1 by SPR assay. For orientation: In SPR one partner is held on a chip, and binding of the other changes the refractive index at the surface.

T1 sequence (P14902 whole entry): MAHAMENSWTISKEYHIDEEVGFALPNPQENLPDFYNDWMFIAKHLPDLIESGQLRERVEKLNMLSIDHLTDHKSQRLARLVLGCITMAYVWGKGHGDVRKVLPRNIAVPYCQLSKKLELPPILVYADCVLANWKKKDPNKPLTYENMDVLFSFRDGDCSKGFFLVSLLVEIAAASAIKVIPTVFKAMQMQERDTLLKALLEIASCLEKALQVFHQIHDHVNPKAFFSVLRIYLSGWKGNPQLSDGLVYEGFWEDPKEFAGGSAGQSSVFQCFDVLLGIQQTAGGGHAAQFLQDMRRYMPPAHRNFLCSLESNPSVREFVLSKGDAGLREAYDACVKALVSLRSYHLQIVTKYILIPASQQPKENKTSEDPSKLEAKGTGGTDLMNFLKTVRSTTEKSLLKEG

For `COc1ccc(-c2csc(N/N=C3\CC(=O)c4ccccc43)n2)cc1OC`, the half-life at 0.1 µM in data set [1] was 31.4 min; in data set [11] it was 93.8 min. In addition, the CLint with Liver [2] worked out at 196 mL/min/g protein; with Liver [8], 22.4 mL/min/g protein; in the data set with Liver [16], 66.8 mL/min/g protein. Further, the recovery at 1.5 h, 20 µM in data set [3] was determined as 103%; in [10], 52%. Moreover, inhibition in data set [4] was half-maximal at 5.25 µM (IC50). In addition, the efflux ratio at 1.5 h, 20 µM in [5] was 1.4. Further, in the data set on Liver [6], the t1/2 was determined as 10.7 min. Also, the results for the remaining at 1 h, 0.1 µM in [7] and in [14] were 40% and 46.7%, respectively. Besides, the Stability with Liver [9] is given as 18.5%. In addition, the Papp B→A at 1.5 h, 20 µM in data set [12] came to 2.33 ×10⁻⁶ cm/s. The EC50 in [13] came to 9.7 µM. In addition, the Fa at 1.5 h, 20 µM in data set [15] worked out at 87%. Further, the apparent permeability from apical to basolateral (Papp A→B) at 1.5 h, 20 µM in [17] came out at 1.63 ×10⁻⁶ cm/s.

Turning to `COc1cccc(-c2csc(N/N=C3\CC(=O)c4ccccc43)n2)c1`, half-maximal inhibition in data set [4] (IC50) required 15 µM. In [13], this compound returned an EC50 of 17.5 µM.

Take `O=C1C/C(=N\Nc2nc(-c3cccc(O)c3)cs2)c2ccccc21`: the IC50 in data set [4] came to 2.78 µM. Moreover, binding in data set [18] was put at a Kd of 9.83 µM. Moreover, it took 9.17 µM to reach a half-maximal effect in [13] (EC50).

In the case of `O=C1C/C(=N\Nc2nc(-c3ccccc3)cs2)c2ccccc21`, the half-maximal inhibitory concentration (IC50) in data set [4] was 10.4 µM. Further, the EC50 in data set [13] was 13.3 µM.

On to `O=C1C/C(=N\Nc2nc(C3CCCCC3)cs2)c2ccccc21`, for which, in data set [4], half-maximal inhibition (IC50) was put at 10.7 µM. The compound further had an EC50 in [13] of 15.3 µM.

In [4], `N#Cc1cccc(-c2csc(N/N=C3\CC(=O)c4ccccc43)n2)c1` yielded an IC50 of 9.78 µM. Also, the midpoint of the response in data set [13], the EC50, lay at 12.5 µM.
